“Also recorded” adds a separate entry of the source. Like-named read-outs stand apart in the source and are kept apart here.
Experiments:
human NTCP [1] = biological target: T1, human NTCP (Homo sapiens, UniProt Q14973); assay: Uptake study on NTCP-HEK293 cells; type: cell-based; conditions: for NTCP substrate (in words): uptake in presence versus absence of sodium; for Normalized Jmax: Jmax of compound normalized against Jmax of taurocholate; for Kt: Michaelis-Menten constant of uptake, 5 min, 0-200 μM in HBSS
T1 sequence (Q14973 1-349): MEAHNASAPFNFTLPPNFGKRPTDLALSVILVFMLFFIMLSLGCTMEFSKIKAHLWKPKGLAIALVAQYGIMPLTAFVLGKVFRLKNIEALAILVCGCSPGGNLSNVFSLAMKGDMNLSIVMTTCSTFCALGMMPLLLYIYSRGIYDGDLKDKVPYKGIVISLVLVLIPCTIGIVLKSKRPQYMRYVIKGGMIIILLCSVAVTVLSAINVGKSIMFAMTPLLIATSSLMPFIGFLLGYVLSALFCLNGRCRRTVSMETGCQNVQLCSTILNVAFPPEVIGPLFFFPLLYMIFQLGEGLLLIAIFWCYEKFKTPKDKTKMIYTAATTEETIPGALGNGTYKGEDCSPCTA

human NTCP [2] = biological target: T1, human NTCP; conditions: ref Dong et al., 2013, cited from earlier work
NTCP-HEK293 cells = assay: Passive uptake in the absence of sodium
human NTCP [3] = biological target: T1, human NTCP; assay: Inhibition of taurocholate uptake into NTCP-HEK293 cells; type: cell-based; conditions: for Inhibition of NTCP taurocholate uptake (in words): NTCP-HEK293 cells, 0-200 μM
human NTCP [4] = biological target: T1, human NTCP; assay: Inhibition of irbesartan or losartan uptake by taurocholate in NTCP-HEK293 cells; type: cell-based; conditions: substrates irbesartan or losartan

| Compound | NTCP substrate (in words) (human NTCP [1]; NTCP-HEK293 cells) | Normalized Jmax (human NTCP [1]) | Kt (human NTCP [1]; NTCP-HEK293 cells) | Pp (passive permeability) (NTCP-HEK293 cells) | also measured |
| --- | --- | --- | --- | --- | --- |
| CC(C)OC(=O)C(C)(C)Oc1ccc(C(=O)c2ccc(Cl)cc2)cc1 [Fenofibrate] | not to be NTCP substrates | – | – | – | Previously identified as NTCP inhibitor (in words) (human NTCP [2]): previously observed them to be inhibitors |
| CCCCC1=NC2(CCCC2)C(=O)N1Cc1ccc(-c2ccccc2-c2nnn[nH]2)cc1 [Irbesartan] | substrates of human NTCP | 0.172 ± 0.022 | 32.7 ± 5.9 µM | 6.27 ± 0.14 cm/s ×10^6 | Jmax (human NTCP [1]; maximal flux, NTCP-HEK293 cells): 0.430 ± 0.026 pmol/sec/cm^2; Jmax relative to taurocholate Jmax (human NTCP [1]; versus taurocholate Jmax): about 20%; Previously identified as NTCP inhibitor (in words) (human NTCP [2]): previously identified as NTCP inhibitors |
| C[C@H](CCC(=O)O)[C@H]1CC[C@H]2[C@@H]3CC[C@@H]4C[C@H](O)CC[C@]4(C)[C@H]3CC[C@]12C [LCA, lithocholate] | indistinguishable uptake in the presence or absence of sodium; also recorded: not an apparent substrate | – | – | 33.9 ± 3.3 cm/s ×10^6 | – |
| C[C@H](CCC(=O)NCCS(=O)(=O)O)[C@H]1CC[C@H]2[C@@H]3CC[C@@H]4C[C@H](O)CC[C@]4(C)[C@H]3CC[C@]12C [TLCA, taurolithocholate] | – | 0.495 ± 0.053 | 6.50 ± 1.87 µM | 3.37 ± 0.63 cm/s ×10^6 | – |
| C[C@H](CCC(=O)NCC(=O)O)[C@H]1CC[C@H]2[C@@H]3[C@H](O)C[C@@H]4C[C@H](O)CC[C@]4(C)[C@H]3CC[C@]12C [GCDCA, glycochenodeoxycholate] | – | 0.726 ± 0.091 | 10.9 ± 1.8 µM | 2.17 ± 0.32 cm/s ×10^6 | – |
| CCCCc1nc(Cl)c(CO)n1Cc1ccc(-c2ccccc2-c2nn[nH]n2)cc1 [Losartan] | – | – | – | 1.48 ± 0.12 cm/s ×10^6 | – |
| C[C@H](CCC(=O)O)[C@H]1CC[C@H]2[C@@H]3[C@H](O)C[C@@H]4C[C@H](O)CC[C@]4(C)[C@H]3CC[C@]12C [CDCA, chenodeoxycholate] | indistinguishable uptake in the presence or absence of sodium; also recorded: no NTCP uptake | – | – | 27.6 ± 1.5 cm/s ×10^6 | – |
| C[C@H](CCC(=O)O)[C@H]1CC[C@H]2[C@@H]3[C@H](O)C[C@@H]4C[C@H](O)CC[C@]4(C)[C@H]3C[C@H](O)[C@]12C [CA, cholate] | substrates | 0.523 ± 0.081 | 54.9 µM | 4.56 ± 0.06 cm/s ×10^6 | – |
| O=C1[C@H](CC[C@H](O)c2ccc(F)cc2)[C@@H](c2ccc(O)cc2)N1c1ccc(F)cc1 [Ezetimibe] | not to be NTCP substrates | – | – | – | Previously identified as NTCP inhibitor (in words) (human NTCP [2]): previously identified as NTCP inhibitors |
| C[C@H](CCC(=O)NCC(=O)O)[C@H]1CC[C@H]2[C@@H]3[C@@H](O)C[C@@H]4C[C@H](O)CC[C@]4(C)[C@H]3CC[C@]12C [GUDCA, glycoursodeoxycholate] | – | 0.460 ± 0.143 | – | – | Ki (human NTCP [3]): 15 µM; Inhibition of NTCP taurocholate uptake (in words) (human NTCP [3]): reduced by GUDCA in a concentration-dependent manner |
| C[C@H](CCC(=O)NCC(=O)O)[C@H]1CC[C@H]2[C@@H]3CC[C@@H]4C[C@H](O)CC[C@]4(C)[C@H]3CC[C@]12C [GLCA, glycolithocholate] | – | 0.384 ± 0.070 | 4.87 ± 3.49 µM | 6.67 ± 0.95 cm/s ×10^6 | Ki (human NTCP [3]): ~5 µM; Ki (human NTCP [3]; listed as Lithocholate Glycine): 7.29 µM |
| C[C@H](CCC(=O)NCCS(=O)(=O)O)[C@H]1CC[C@H]2[C@@H]3[C@@H](O)C[C@@H]4C[C@H](O)CC[C@]4(C)[C@H]3CC[C@]12C [TUDCA, tauroursodeoxycholate] | – | 0.409 ± 0.038 | 9.53 µM | – | – |
| C[C@H](CCC(=O)NCC(=O)O)[C@H]1CC[C@H]2[C@@H]3[C@H](O)C[C@@H]4C[C@H](O)CC[C@]4(C)[C@H]3C[C@H](O)[C@]12C [GCA, glycocholate] | – | 0.508 ± 0.041 | 15.8 ± 2.7 µM | – | – |
| C[C@H](CCC(=O)NCCS(=O)(=O)O)[C@H]1CC[C@H]2[C@@H]3[C@H](O)C[C@@H]4C[C@H](O)CC[C@]4(C)[C@H]3C[C@H](O)[C@]12C [TCA, taurocholate] | – | 0.708 ± 0.057 | 19.8 ± 2.5 µM | – | Inhibition of irbesartan and losartan uptake (in words) (human NTCP [4]): inhibited irbesartan and losartan uptake in a concentration dependent fashion; Kt (NTCP taurocholate Michaelis-Menten constant) (human NTCP [2]; used in Equation 1): 22.7(+3.4) μM |
| C[C@H](CCC(=O)NCCS(=O)(=O)O)[C@H]1CC[C@H]2[C@@H]3[C@H](O)C[C@@H]4C[C@H](O)CC[C@]4(C)[C@H]3CC[C@]12C [TCDCA, taurochenodeoxycholate] | – | 0.621 ± 0.058 | 8.12 ± 1.20 µM | 4.35 ± 0.70 cm/s ×10^6 | – |
| C[C@H](CCC(=O)N[C@@H](CCC(=O)OCc1ccccc1)C(=O)O)[C@H]1CC[C@H]2[C@@H]3[C@H](O)C[C@@H]4C[C@H](O)CC[C@]4(C)[C@H]3CC[C@]12C [CDCA-L-Glu-γ-Benzyl Ester] | – | 0.233 ± 0.036 | 11.7 ± 4.3 µM | 7.70 ± 0.23 cm/s ×10^6 | – |
| C[C@H](CCC(=O)O)[C@H]1CC[C@H]2[C@@H]3C(=O)C[C@@H]4CC(=O)CC[C@]4(C)[C@H]3CC(=O)[C@]12C [DHCA, dehydrocholate] | – | – | – | – | Inhibition of NTCP taurocholate uptake (in words) (human NTCP [3]): not an inhibitor of NTCP |
| C[C@H](CCC(=O)O)[C@H]1CC[C@H]2[C@@H]3[C@@H](O)C[C@@H]4C[C@H](O)CC[C@]4(C)[C@H]3CC[C@]12C [UDCA, ursodeoxycholate] | substrates | 0.0511 ± 0.0093 | 1.55 µM | 26.3 ± 1.1 cm/s ×10^6 | Normalized Jmax, fold lower than that for taurocholate (human NTCP [1]; versus taurocholate): 14 fold |
| CC(C)[C@H](NC(=O)CC[C@@H](C)[C@H]1CC[C@H]2[C@@H]3[C@H](O)C[C@@H]4C[C@H](O)CC[C@]4(C)[C@H]3CC[C@]12C)C(=O)O [CDCA-L-Val-OH] | – | 0.330 ± 0.031 | 9.62 ± 1.47 µM | 1.47 ± 0.09 cm/s ×10^6 | – |
| CC(C)c1nc(N(C)S(C)(=O)=O)nc(-c2ccc(F)cc2)c1/C=C/[C@@H](O)C[C@@H](O)CC(=O)O [Rosuvastatin] | – | – | – | 0.330 ± 0.006 cm/s ×10^6 | – |
